Results: patent publication US7741436B2, “Biologically active peptides and their use for repairing injured nerves” (priority 2001, dated 2010)

Columns and labels:
Assay type in all cases: cell-based
[1] = test system: rat cerebellar granule neurons; assay: Electrophysiology: voltage-clamped whole-cell patch recordings of currents induced by laminin-1-derived peptides and fusion proteins; conditions: whole-cell patch clamp, neurons on laminin-1 substratum
Description: Sixteen-day pregnant Sprague-Dawley female rats were obtained from Taconic Farms, and maintained at the animal facility of National Institute of Alcohol Abuse and Alcoholism (NTH), fed with NTH-31 diet, containing 20,000 IU/kg vitamin A after autoclaving. The rats were allowed to give birth, and cerebellar tissues of 3-day-old female pups were aseptically isolated as described previously (Matsuzawa et al., 1996a). A suspension of single cells was obtained by trypsinizing the cerebella as described elsewhere (Liesi and Wright, 1996), after which 10^5 cells were plated on 22 mm glass coverslip pre-coated with laminin-1. The cells were incubated in an atmosphere of 95% air/5% CO2 at +37° C. in RPMI 1640 culture medium supplemented with penicillin and streptomycin and 200 μM L-glutamine. After 24 hrs, the cells were used for electrophysiology.
Recordings were done at room temperature using a List EPC-7 patch-clamp amplifier in voltage-clamped whole-cell patch configuration as described previously (Liesi and Wright, 1996). Pipettes were pulled from borosilicate glass and lightly fire polished. Experiments were performed at room temperature. Whole-cell currents were recorded on a Gould 2400S strip chart recorder. Cell membrane potential was clamped at −40 mV unless otherwise noted. All bath solutions were applied through pinch-valves that controlled the flow from multiple reservoirs to a single 200 μm ID barrel of fused silica. Standard bath solution was RPMI 1640, buffered with 10 mM HEPES (pH 7.4). The standard pipette solution contained (in mM): CsMeSO4 100, CsCl 15, BAPTA 5, HEPES 10 (pH KOH-adjusted to 7.2). Tests for reversal potentials were conducted in low K^+ bath solution containing (in mM): NaCl 150, KCl 5, CaCl2 1, HEPES 10 (pH adjusted to 7.2 with NaOH) and a high K^+ bath solution, containing (in mM): NaCl 115, KCl 40, CaCl2 1, HEPES 10 (pH adjusted to 7.2 with NaOH). All bath solutions contained 300 nM TTX. […] Nernst reversal potentials were calculated according to Hille (1992). […]

[2] = test system: human embryonic neocortical neurons; assay: Survival of human embryonic neocortical neurons on injured glial cells of the human spinal cord; conditions: 1 μg/ml soluble peptide, 72 hrs, vs lesion control
Description: The CNS tissues were first placed in cold saline. The spinal cord tissues were identified under a stereomicroscope, and carefully freed of meninges. To obtain monolayer cultures of human spinal cord glial cells, the cells were dissociated by mechanical trituration using a Pasteur-pipette, and placed in Petri dishes (Corning, N.Y., USA) containing 10% fetal calf serum (Hyclone, Logan, UH) in DMEM-F12 (Gibco, U.K.) supplemented with penicillin and streptomycin as described (Liesi et al. 2001).
Human embryonic spinal cord glial cells were cultured till confluency in 10% fetal bovine serum as described (Liesi et al., 2001). The confluent cultures were trypsinized and cells replated at 100 000 cells/22 mm glass coverslip, and grown till confluency. The confluent cultures were changed into normal adult human serum, and injured by using a 18 G gauge sterile needle. The KDI peptide was added at 1 μg/ml (3 μM) and at 10 μg/ml (30 μM) concentration and the P1543 peptide (p20) was added at a concentration of 1 μM, and 50-100 000 freshly isolated human embryonic neocortical neurons were added on the glial cells. The control cultures had neurons added either without the peptide or the lesion. The cells were cultured for 72 hrs in 5% CO2/95% air at +37° C., and fixed for quantitation of neurons and measurement of their neuritic lengths. The neurons on glial monolayers were visualized by immunostaining using mouse monoclonal antibodies against a neuron-specific tubulin isoform (TUJ1). The results were evaluated by counting neurons in six random fields on 3 different coverslip per experiment. In this way, more than 300 neurons were counted per experiment. Statistical analysis of the results was performed using one-way analysis of Varians (ANOVA) and Student-Newman-Keuls multiple comparisons test on the Instat (v2.03) program (GraphPad, San Diego, Calif.).

human CNS neurons = assay: Attachment and neurite outgrowth of human embryonic CNS neurons on synthetic peptides coupled to glass; conditions: 1 μg/ml, peptide coupled to glass, 24 hrs
Method: The cells were dissociated by trituration in a sterile culture medium (RPMI 1640) containing penicillin (100 U/ml), streptomycin (100 μg/ml) and 200 μM L-glutamine. The dissociated cells were plated on glass coverslips pre-coated (Liesi et al., 1989) with mouse laminin-1 (Boehringer-Mannheim, Germany) or with the peptides KDI-gc and RDIAEIIKDI-gc (SEQ ID NO: 1), as described elsewhere (Matsuzawa et al., 1996b). The peptides were from the Multiple Peptide Systems (La Jolla, Calif.). The cultures were maintained for 24 hrs, fixed in 2% paraformaldehyde, and processed for immunocytochemistry.
Immunocytochemistry for neuron specific tubulin isoform TUJ1 was performed as described elsewhere (Liesi et al., 2001). In short, the cells were permeabilized in methanol for 5 min at −20° C., washed in PBS and incubated with monoclonal TUJ1-antibodies for 1 hr at room temperature. The antibody was of high specificity and was used at 1:500 dilution. After immunocytochemistry, the coverslips were mounted in PBS:glycerol (1:1) and viewed with Olympus Provis fluorescence microscope with appropriate filter combinations.

Substance	induction of currents in cerebellar granule neurons [1]	attachment and neurite outgrowth of neocortical neurons on lesioned spinal cord glial cells [2]	attachment and neurite outgrowth of human CNS neurons (human CNS neurons)
EIIKDI [6-amino acid peptide truncated from P1543]	induced currents		
RDIAEIIKDI [P1543, C-terminal neurite outgrowth decapeptide of the γ1-chain of laminin-1]	induced electrical currents	significant (p<0.001) improvement	supported attachment and neurite outgrowth
